What was measured:
Format in all cases: in vivo
Details in all cases: active ingredient amount 31 g/ha, 14th day after application
[1] = tested on: velvetleaf (Abutilon theophrasti MEDIC.); test: Test Example 2: soil application on the day after sowing, growth inhibition rate on 14th day
Method in brief: (§1)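 Upland soil pots; sowing, then next-day soil spraying of compound formulations (1,000 L/ha water) at defined a.i. doses. Day-14 visual rating of inhibition on a 0–100 scale, where 100 means complete kill.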

[2] = tested on: green foxtail (Setaria viridis L.); test: as above
Method in brief: as §1

[3] = tested on: redroot pigweed (Amaranthus retroflexus L.); test: as above
Method in brief: as §1

[4] = tested on: soybean (Glycine max Merr.); test: as above
Method in brief: as §1

[5] = tested on: prickly sida (Sida spinosa L.); test: as above
Method in brief: as §1

[6] = tested on: wheat (Triticum aestivum L.); test: as above
Method in brief: as §1

[7] = tested on: crabgrass (Digitaris sanquinalis L.); test: as above
Method in brief: as §1

corn (Zea mays L.) [8] = test: as above
Method in brief: as §1

rice (Oryza sativa L.) [9] = test: as above
Method in brief: as §1

[10] = tested on: barnyardgrass (Echinochloa crus-qalli L.); test: as above
Method in brief: as §1

[11] = tested on: italian ryegrass (Lolium multiflorum Lam.); test: Test Example 1: foliar treatment, growth inhibition rate on 14th day
Method in brief: (§2)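 Visual 0–100% inhibition scoring (100 = complete kill) at 14 days after foliar treatment of soil-grown seedlings at species-specific leaf stages, with the compound sprayed as a wettable powder or emulsifiable concentrate dilution.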

[12] = tested on: wild oat (Avena fatua L.); test: as above
Method in brief: as §2

[13] = tested on: green foxtail (Setaria viridis L.); test: as above
Method in brief: as §2

[14] = tested on: redroot pigweed (Amaranthus retroflexus L.); test: as above
Method in brief: as §2

[15] = tested on: soybean (Glycine max Merr.); test: as above
Method in brief: as §2

[16] = tested on: crabgrass (Digitaria sanquinalis L.); test: as above
Method in brief: as §2

[17] = tested on: wheat (Triticum aestivum L.); test: as above
Method in brief: as §2

corn (Zea mays L.) [18] = test: as above
Method in brief: as §2

rice (Oryza sativa L.) [19] = test: as above
Method in brief: as §2

[20] = tested on: barnyardgrass (Echinochloa crus-qalli L.); test: as above
Method in brief: as §2

[21] = visual, 0 = non-treated, 100 = complete kill

Structure (SMILES) | Growth inhibition rate (%) Velvetleaf [1] | Growth inhibition rate (%) Green foxtail [2] | Growth inhibition rate (%) Redroot pigweed [3] | Growth inhibition rate (%) Soybean [4] | Growth inhibition rate (%) Prickly sida [5] | Growth inhibition rate (%) Wheat [6] | Growth inhibition rate (%) Crabgrass [7] | Growth inhibition rate (%) Corn (corn (Zea mays L.) [8]) | Growth inhibition rate (%) Rice (rice (Oryza sativa L.) [9]) | Growth inhibition rate (%) Barnyardgrass [10] | Growth inhibition rate (%) Italian ryegrass [11] | Growth inhibition rate (%) Wild oat [12] | Growth inhibition rate (%) Green foxtail [13] | Growth inhibition rate (%) Redroot pigweed [14] | Growth inhibition rate (%) Soybean [15] | Growth inhibition rate (%) Crabgrass [16] | Growth inhibition rate (%) Wheat [17] | Growth inhibition rate (%) Corn (corn (Zea mays L.) [18]) | Growth inhibition rate (%) Rice (rice (Oryza sativa L.) [19]) | Growth inhibition rate (%) Barnyardgrass [20] | other results
CCc1ccc(Oc2nc3cc(Cl)ccc3o2)cc1-c1c(O)c(C)nn(C)c1=O [Compound 2-161] | 0% | 0% | 0% | 0% | 0% | 0% | 0% | 0% | 0% | 98% | 99% | 99% | 100% | 40% | 0% | 83% | 85% | 90% | 99% | 100% | –
CC(=O)Oc1c(C)nn(C)c(=O)c1-c1cc(Oc2ncc(C(F)(F)F)cc2C(F)(F)F)ccc1C [Compound 2-116] | 0% | 100% | 0% | 0% | 0% | 60% | 100% | 85% | 0% | 100% | 100% | 100% | 100% | 0% | 10% | 100% | 99% | 100% | 90% | 100% | –
CCOC(=O)C(=O)Oc1c(C)nn(C)c(=O)c1-c1cc(Oc2cnc3cc(Cl)ccc3n2)ccc1C [Compound 3-79] | 0% | 100% | 0% | 0% | 0% | 0% | 95% | 0% | 0% | 100% | – | – | – | – | – | – | – | – | – | – | Growth inhibition rate (%) Italian ryegrass [11, 21]: 99%; Growth inhibition rate (%) Wild oat [12, 21]: 98%; Growth inhibition rate (%) Green foxtail [13, 21]: 100%; Growth inhibition rate (%) Redroot pigweed [14, 21]: 0%; Growth inhibition rate (%) Soybean [15, 21]: 30%; Growth inhibition rate (%) Crabgrass [16, 21]: 98%; Growth inhibition rate (%) Wheat [17, 21]: 93%; Growth inhibition rate (%) Corn (corn (Zea mays L.) [18]; [21]): 50%; Growth inhibition rate (%) Rice (rice (Oryza sativa L.) [19]; [21]): 99%; Growth inhibition rate (%) Barnyardgrass [20, 21]: 100%
Cc1ccc(Oc2cnc3cc(Cl)ccc3n2)cc1-c1c(OC(=O)C=CCl)c(C)nn(C)c1=O [Compound 3-54] | 0% | 98% | 0% | 0% | 0% | 0% | 30% | 0% | 0% | 99% | – | – | – | – | – | – | – | – | – | – | Growth inhibition rate (%) Italian ryegrass [11, 21]: 95%; Growth inhibition rate (%) Wild oat [12, 21]: 78%; Growth inhibition rate (%) Green foxtail [13, 21]: 100%; Growth inhibition rate (%) Redroot pigweed [14, 21]: 0%; Growth inhibition rate (%) Soybean [15, 21]: 20%; Growth inhibition rate (%) Crabgrass [16, 21]: 98%; Growth inhibition rate (%) Wheat [17, 21]: 93%; Growth inhibition rate (%) Corn (corn (Zea mays L.) [18]; [21]): 30%; Growth inhibition rate (%) Rice (rice (Oryza sativa L.) [19]; [21]): 20%; Growth inhibition rate (%) Barnyardgrass [20, 21]: 100%
